ChEMBL document CHEMBL1201862, “PubChem BioAssay data set” (2004)
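Five compound concentrations were applied to cells in 96-well plates for 48 hours; endpoints were derived by simple linear interpolation of the resulting dose-response curve. The concentration for 50% growth inhibition is given as GI50.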 The source made the active and inactive calls. Cut-off read from the data, not from the text of the source: active = GI50 up to about 1.1 µM and inactive = higher.

Columns and labels:
Test in all cases: NCI-60 cell line screen, 48 h
COLO 205 = test system: COLO 205
MDA-MB-231 = test system: MDA-MB-231
M14 = test system: M14
UACC-62 = test system: UACC-62
UO-31 = test system: UO-31
SF-268 = test system: SF-268
HT-29 = test system: HT-29
HCT-116 = test system: HCT-116
MCF7 = test system: MCF7
DU-145 = test system: DU-145
MOLT-4 = test system: MOLT-4
OVCAR-3 = test system: OVCAR-3
NCI-H226 = test system: NCI-H226
A498 = test system: A498
UACC-257 = test system: UACC-257
K562 = test system: K562
SK-MEL-28 = test system: SK-MEL-28
CAKI-1 = test system: CAKI-1
NCI-H522 = test system: NCI-H522

Measured: GI50

O=C1c2c(ccc3c2CCC3)CC1Cc1ccc2c(c1)CCC2 (stereo not given)
inactive: COLO 205 20.3 µM | MDA-MB-231 10.3 µM | M14 32.1 µM | UACC-62 8.24 µM | UO-31 56.6 µM | SF-268 33.7 µM | HT-29 17.6 µM | HCT-116 6.55 µM | MCF7 22.6 µM | DU-145 27.3 µM | MOLT-4 13.1 µM | OVCAR-3 24.4 µM | NCI-H226 28.2 µM | A498 27.1 µM | UACC-257 18.5 µM | K562 14 µM | SK-MEL-28 51.8 µM

Fc1ccc(OCc2ccc3nc(-c4ccccc4)c(Cl)nc3c2)cc1
inactive: COLO 205 37.1 µM | MDA-MB-231 20 µM | M14 67.8 µM | CAKI-1 22.1 µM | UACC-62 28.8 µM | UO-31 > 100 µM | SF-268 26 µM | HT-29 65.2 µM | HCT-116 31.6 µM | MCF7 53.1 µM | DU-145 30.5 µM | MOLT-4 21.6 µM | NCI-H522 6.19 µM | OVCAR-3 47.6 µM | A498 25.8 µM | UACC-257 > 100 µM | SK-MEL-28 69.3 µM

CCOc1c2ccsc2c(OCC)c2ccsc12
inactive: COLO 205 4.21 µM | MDA-MB-231 8.57 µM | M14 4.69 µM | CAKI-1 4.61 µM | UACC-62 3.85 µM | UO-31 9.02 µM | SF-268 9.82 µM | HT-29 3.48 µM | HCT-116 4.06 µM | MCF7 3.59 µM | DU-145 5 µM | MOLT-4 3.52 µM | NCI-H522 3.27 µM | OVCAR-3 3.52 µM | A498 7.03 µM | UACC-257 > 29.1 µM | K562 2.95 µM | SK-MEL-28 9.38 µM

CC(=O)/C(=C/NC(=S)c1ccncc1)C(=O)Nc1ccccc1C
inactive: COLO 205 > 100 µM | MDA-MB-231 > 100 µM | M14 > 100 µM | CAKI-1 > 100 µM | UACC-62 > 100 µM | UO-31 > 100 µM | SF-268 > 100 µM | HT-29 > 100 µM | HCT-116 > 100 µM | MCF7 > 100 µM | DU-145 > 100 µM | OVCAR-3 > 100 µM | NCI-H226 > 100 µM | A498 > 100 µM | UACC-257 > 100 µM | SK-MEL-28 > 100 µM

CCN(c1cccc(NC(=S)Nc2ccccc2N(CC)c2cc(-c3ccccc3)no2)c1)c1cc(-c2ccccc2)no1
inactive: COLO 205 > 100 µM | MDA-MB-231 > 100 µM | M14 > 100 µM | CAKI-1 > 100 µM | UACC-62 > 100 µM | UO-31 > 100 µM | SF-268 > 100 µM | HT-29 > 100 µM | HCT-116 > 100 µM | MCF7 > 100 µM | DU-145 > 100 µM | MOLT-4 > 100 µM | NCI-H522 > 100 µM | OVCAR-3 > 100 µM | NCI-H226 > 100 µM | UACC-257 > 100 µM | K562 > 100 µM | SK-MEL-28 > 100 µM

N=C(N)NC1C(O)C(O)C(O)C(NC(=N)N)C1O (stereo not given)
inactive: COLO 205 > 100 µM | MDA-MB-231 > 100 µM | M14 > 100 µM | CAKI-1 > 100 µM | UACC-62 > 100 µM | UO-31 > 100 µM | SF-268 > 100 µM | HT-29 > 100 µM | HCT-116 > 100 µM | MCF7 > 100 µM | DU-145 > 100 µM | MOLT-4 > 100 µM | NCI-H522 > 100 µM | OVCAR-3 > 100 µM | A498 > 100 µM | UACC-257 > 100 µM | K562 > 100 µM | SK-MEL-28 > 100 µM

CC(=O)C1=C(C)N2C(=NC3=C(CCc4ccccc43)C2c2cccc(Br)c2)S1 (stereo not given)
inactive: COLO 205 88.1 µM | MDA-MB-231 > 100 µM | M14 > 100 µM | UACC-62 68.2 µM | UO-31 > 100 µM | SF-268 > 100 µM | HT-29 22.1 µM | HCT-116 30.8 µM | MCF7 > 100 µM | DU-145 > 100 µM | OVCAR-3 93.1 µM | NCI-H226 79.6 µM | A498 > 100 µM | UACC-257 84.1 µM | SK-MEL-28 > 100 µM

S=C(NCCc1ccccn1)c1nc[nH]c1C(=S)NCCc1ccccn1
inactive: COLO 205 49.7 µM | MDA-MB-231 > 100 µM | M14 31.9 µM | CAKI-1 57.1 µM | UACC-62 22.7 µM | UO-31 29 µM | SF-268 66.1 µM | HT-29 > 100 µM | HCT-116 34 µM | MCF7 36.1 µM | DU-145 30.8 µM | OVCAR-3 37.9 µM | NCI-H226 46.8 µM | A498 > 100 µM | UACC-257 > 100 µM | K562 40.8 µM | SK-MEL-28 52.4 µM

O=C1C(NS(=O)(=O)c2ccccc2)=C(n2ccnc2)C(=O)c2ccccc21
inactive: COLO 205 > 100 µM | MDA-MB-231 > 100 µM | M14 > 100 µM | CAKI-1 > 100 µM | UACC-62 > 100 µM | UO-31 > 100 µM | SF-268 > 100 µM | HT-29 > 100 µM | HCT-116 > 100 µM | MCF7 > 100 µM | DU-145 > 100 µM | MOLT-4 > 100 µM | NCI-H522 > 100 µM | OVCAR-3 > 100 µM | NCI-H226 > 100 µM | UACC-257 > 100 µM | K562 > 100 µM | SK-MEL-28 > 100 µM

COC(=O)C12C3C4(C(=O)OC)C1C1(C(=O)OC)C2C3(C(=O)OC)C41C(=O)N(C(C)C)C(C)C (stereo not given)
inactive: COLO 205 > 100 µM | MDA-MB-231 > 100 µM | M14 > 100 µM | CAKI-1 > 100 µM | UACC-62 > 100 µM | UO-31 > 100 µM | SF-268 > 100 µM | HT-29 > 100 µM | HCT-116 > 100 µM | MCF7 > 100 µM | DU-145 > 100 µM | MOLT-4 > 100 µM | NCI-H522 > 100 µM | OVCAR-3 > 100 µM | A498 > 100 µM | UACC-257 > 100 µM | K562 > 100 µM | SK-MEL-28 > 100 µM

CC(=O)OCC1OC(Oc2cc(C)c(O)cc2C/C=C(\C)CC/C=C(\C)CC(=O)CC(C)C)C(O)C(OC(C)=O)C1OC(C)=O (stereo not given)
inactive: COLO 205 10.2 µM | MDA-MB-231 11.2 µM | M14 5.22 µM | CAKI-1 30.3 µM | UACC-62 13 µM | UO-31 3.28 µM | SF-268 21.2 µM | HT-29 6 µM | HCT-116 18.2 µM | MCF7 12.8 µM | DU-145 23.3 µM | MOLT-4 9.23 µM | NCI-H522 13.6 µM | OVCAR-3 8.81 µM | A498 11 µM | UACC-257 12.1 µM | K562 9.38 µM | SK-MEL-28 27.4 µM
